Structures can show the parent of a compound that is named as a salt. Numbered stars: 1 amine (or outer) side, 2 acyl side, 3 side chain; on linkers, the order of the positions; unused ones are H or OH. Bridge positions count the residues as written; N and C are the ends. Square brackets hold non-standard residues; d marks the D form. Peptide text beside a SMILES is read from it. I, II: the chains in the order shown. Actinocin(9to1) = Cc1c2oc3c(C)ccc(C(=O)[*:1])c3nc-2c(C(=O)[*:2])c(N)c1=O; NMeV = CN[C@H](C(=O)O)C(C)C; Sar = CNCC(=O)O
Experiment: Release of solubilised Orange OT dye from micelles by lowered pH (particle size)
Type: physicochemical
Conditions: pH 4.5, after release from MPC30-DEA60 micelles
From the text: The release of solubilised Orange OT dye from micelles, as a model for drug release, using lowered pH as the stimuli was examined.

Compound	share of the particle population [%]
Cc1ccccc1N=Nc1c(O)ccc2ccccc12 [Orange OT]	1

Same assay, conditions: released from MPC30-DEA60 micelles, pH reduced to pH 4.5

Compound	mean particle diameter of released dye aggregates [nm]
Cc1ccccc1N=Nc1c(O)ccc2ccccc12 [Orange OT]	113

Experiment: not given
Conditions: octanol/water; determined experimentally, literature; cited from earlier work

Compound	LogP (Exp)
Nc1nc2nc[nH]c2c(=S)[nH]1 [6-Thioguanine]	−0.28
Cc1c2oc3c(C)ccc(C(=O)N[C@@H]4C(=O)N[C@H](C(C)C)C(=O)N5CCC[C@H]5C(=O)N(C)CC(=O)N(C)[C@@H](C(C)C)C(=O)O[C@@H]4C)c3nc-2c(C(=O)N[C@@H]2C(=O)N[C@H](C(C)C)C(=O)N3CCC[C@H]3C(=O)N(C)CC(=O)N(C)[C@@H](C(C)C)C(=O)O[C@@H]2C)c(N)c1=O [Actinomycin] (I: T[dV]P[Sar][NMeV] / II: T[dV]P[Sar][NMeV]; ester I:1-I:C, II:1-II:C; linker I:N-II:N via Actinocin(9to1))	0.997
COCc1c(C(C)C)nc(C(C)C)c(/C=C/[C@@H](O)C[C@@H](O)CC(=O)O)c1-c1ccc(F)cc1 [Cerivastatin]	2.05
O=C1CCc2cc(OCCCCc3nnnn3C3CCCCC3)ccc2N1 [Cilostazol]	2.3
C[C@]12CC[C@@H]3c4ccc(O)cc4CC[C@H]3[C@@H]1CC[C@@H]2O [Estradiol]	4.3
COc1cc([C@@H]2c3cc4c(cc3[C@@H](O[C@@H]3O[C@@H]5CO[C@@H](C)O[C@H]5[C@H](O)[C@H]3O)[C@H]3COC(=O)[C@H]23)OCO4)cc(OC)c1O [Etoposide]	0.99
O=c1[nH]cc(F)c(=O)[nH]1 [Fluorouracil]	−1
CC(C)n1c(/C=C/C(O)CC(O)CC(=O)O)c(-c2ccc(F)cc2)c2ccccc21 (centres unmarked) [Fluvastatin]	1.67
CC[C@H](C)C(=O)O[C@H]1C[C@@H](C)C=C2C=C[C@H](C)[C@H](CC[C@@H]3C[C@@H](O)CC(=O)O3)[C@H]21 [Lovastatin]	1.7
CC[C@H](C)C(=O)O[C@H]1C[C@H](O)C=C2C=C[C@H](C)[C@H](CC[C@@H](O)C[C@@H](O)CC(=O)O)[C@H]21 [Pravastatin]	−0.23
CC(=O)O[C@H]1C(=O)[C@@]2(C)[C@H]([C@H](OC(=O)c3ccccc3)[C@]3(O)C[C@H](OC(=O)[C@H](O)[C@@H](NC(=O)c4ccccc4)c4ccccc4)C(C)=C1C3(C)C)[C@]1(OC(C)=O)CO[C@@H]1C[C@@H]2O [Taxol]	3.98
CC[C@]1(O)C[C@@H]2CN(CCc3c([nH]c4ccccc34)[C@@](C(=O)OC)(c3cc4c(cc3OC)N(C)[C@H]3[C@@](O)(C(=O)OC)[C@H](OC(C)=O)[C@]5(CC)C=CCN6CC[C@]43[C@@H]65)C2)C1 [Vinblastine]	1.68
CC[C@]1(O)C[C@H]2CN(CCc3c([nH]c4ccccc34)[C@@](C(=O)OC)(c3cc4c(cc3OC)N(C=O)[C@H]3[C@@](O)(C(=O)OC)[C@H](OC(C)=O)[C@]5(CC)C=CCN6CC[C@]43[C@@H]65)C2)C1 [Vincristine Sulfate]	2.14

Experiment: Dipyridamole loading by pH change
Type: physicochemical
Conditions: pH 2
Protocol: In another example of drug loading, a solution of the drug dipyridamole was used given the intensely coloured nature of the drug allows simple detection. At pH 2 this drug was dissolved to give a fluorescent green-yellow solution. By adjusting the pH to 9-10 the drug was seen to precipitate.

Compound	solubility behaviour of the drug
OCCN(CCO)c1nc(N2CCCCC2)c2nc(N(CCO)CCO)nc(N3CCCCC3)c2n1 [Dipyramidole]	dissolved

Same assay, conditions: pH 9-10

Compound	solubility behaviour of the drug
OCCN(CCO)c1nc(N2CCCCC2)c2nc(N(CCO)CCO)nc(N3CCCCC3)c2n1 [Dipyramidole]	precipitate

— patent publication US9765213B2, “Drug carriers comprising amphilphilic block copolymers” (BIOCOMPATIBLES UK LIMITED, priority 2002, dated 2017)
